Data taken from ChEMBL document CHEMBL3301546, “MMV Malaria Box yeast growth screening”.

Legend:
Format in all cases: functional
[1] = tested on: Saccharomyces cerevisiae; experiment: MMV: Growth assays were conducted using the prototrophic S. cerevisiae strain JHY222. Each MMV compound (0.1 mM) was tested in minimal media containing ethanol and glycerol as carbon sources (Yeast Nitrogen Base, Ethanol, Glycerol; YNBEG). The growth rate in the presence of each MMV compound was calculated as follows: (i) the first 10 OD readings were averaged and subtracted from all OD readings of the corresponding curve to set the baseline of the growth curve to zero, and (ii) the area under the curve (AUC) was then calculated as the sum of all OD readings. […] A relative growth value was calculated as follows: AUC(DRUG) - AUC(DMSO)/AUC(DMSO); where AUC(DMSO) represents growth measured in a DMSO control well that was on the same microtiter plate of the drug-treated culture.
[2] = tested on: Saccharomyces cerevisiae; experiment: (§1) MMV: Growth assays were conducted using the prototrophic S. cerevisiae strain JHY222. Each MMV compound (0.1 mM) was tested in rich media containing dextrose as a carbon source (Yeast Extract, Peptone, Dextrose; YPD). The growth rate in the presence of each MMV compound was calculated as follows: (i) the first 10 OD readings were averaged and subtracted from all OD readings of the corresponding curve to set the baseline of the growth curve to zero, and (ii) the area under the curve (AUC) was then calculated as the sum of all OD readings. […] A relative growth value was calculated as follows: AUC(DRUG) - AUC(DMSO)/AUC(DMSO); where AUC(DMSO) represents growth measured in a DMSO control well that was on the same microtiter plate of the drug-treated culture.
[3] = tested on: Saccharomyces cerevisiae; experiment: as §1, with “minimal” for “rich”, “Nitrogen Base,” for “Extract, Peptone,”, “YNBD).” for “YPD).”

Structure (SMILES) | Relative Growth [1] | Relative Growth [2] | Relative Growth [3]
COc1ccc2c(c1)C1(Nc3ccccc3-c3nc4ccccc4n31)C(=O)N2 (configuration not stated) | -0.0059 | -0.0036 | 0.0329
CCOc1cc(CNC(C)C(O)c2ccccc2)cc(Cl)c1OCC (configuration not stated) | -0.0694 | -0.0689 | 0.088
CCOc1c(Cl)cc(CNCC(O)c2ccccc2)cc1OC (configuration not stated) | -0.2647 | -0.0592 | 0.0136
OC(CNCC1CCCO1)Cn1c2ccc(Cl)cc2c2cc(Cl)ccc21 (configuration not stated) | 0.0106 | -0.0004 | 0.0307
COc1ccc2nc(C)cc(Nc3ccccc3O)c2c1 | -0.0329 | -0.0232 | 0.0332
Cc1cc(N2CCCC2)nc(Nc2ccc(NC(=O)CCc3ccccc3)cc2)n1 | -0.093 | -0.047 | -0.0661
CN(C)CCNc1cc(-c2ccccc2)nc2ccccc12 | 0.0694 | -0.0237 | 0.1058
COCCNCC(O)Cn1c2ccc(Cl)cc2c2cc(Cl)ccc21 (configuration not stated) | -0.4771 | -0.9998 | -0.1893
CCC(O)c1ccc(Br)cc1NC(=O)c1cccc(Cl)c1 (configuration not stated) | 0.102 | 0.0228 | 0.0885
O=c1nc(C=Cc2ccc(Br)cc2)oc2ccccc12 | 0.0189 | -0.0705 | 0.007
Cc1sc2ncnc(Sc3nc4ccccc4[nH]3)c2c1C | 0.0545 | 0.0241 | 0.0477
O=C(O)C(=O)O.Oc1ccccc1CN1CCN(C(c2ccccc2)c2ccccc2)CC1 | 0.0338 | -0.1402 | 0.1461
Cc1cc(Nc2cccc(F)c2)nc(NCc2ccccc2)n1 | -0.2557 | -0.0448 | 0.0258
CCOc1ccc(C2N(C)c3ccccc3N2C)cc1 | -1.002 | -0.6451 | -1.0114
CCN(Cc1ccccc1)C1CCN(Cc2cc(Br)ccc2O)CC1.O=C(O)C(=O)O | 0.0185 | -0.0428 | 0.0515
Cl.Clc1cc(Br)ccc1-c1ccc(CNCC2CCNCC2)o1 | -0.083 | 0.004 | 0.0133
CCOc1ccccc1NC(=O)CN1CCN(C(=O)c2ccco2)CC1 | -0.0386 | -0.0315 | 0.1567

Structure (SMILES) | Relative Growth [1] | Relative Growth [2] | Relative Growth [3]
COc1ccc(-c2nonc2NC(=O)c2cccc(Cl)c2)cc1OC | 0.0561 | -0.028 | 0.1832
COc1cc(SC)ccc1C(=O)N1CCCC(C)C1 (configuration not stated) | -0.0182 | -0.0213 | 0.0716
CC(C)c1ccc(CNCC(O)c2ccccc2)cc1.Cl (configuration not stated) | 0.0017 | -0.02 | 0.1145
CCOc1cc2c(cc1OCC)C(c1cc(Cl)c(O)c(OCC)c1)NCC2 (configuration not stated) | -0.0121 | 0.0051 | 0.0679
O=C(O)C(=O)O.Oc1ccc(Br)cc1CN1CCN(Cc2cccc(F)c2)CC1 | -0.3839 | -0.1015 | -0.047
O=c1nc(C=Cc2ccc(Cl)cc2)oc2ccccc12 | 0.0415 | 0.0204 | 0.0988
CN(C)c1ccc(N2C(N)=NC(N)=NC2(C)C)cc1 | 0.007 | -0.0542 | 0.0279
COc1ccc(Nc2nc(NCc3ccccc3)c3ccccc3n2)cc1 | -0.0366 | 0.0094 | 0.0331
COc1cc2c(cc1OC)C1=NNC(=O)C1=NC(C)(C)C2 | -0.3659 | -0.48 | -0.0857
Cl.OC(CNCc1ccccc1)Cn1c2ccccc2c2ccccc21 (configuration not stated) | 0.03 | -0.0131 | 0.0554
Oc1c2c(nc3cc(-c4ccccc4)nn13)CCCC2 | -0.0208 | -0.4545 | 0.0363
Clc1ccc2c(N3CCCC3)ccnc2c1 | -0.0954 | -0.0453 | 0.0172
CCOc1ccc(CCNC(=O)c2cccs2)cc1OCC | -0.3956 | -1.0059 | -0.7048
C=CCc1c(C)nc2ccccc2c1O | 0.1025 | -0.0062 | -0.0056
Nc1ccn([C@@H]2O[C@H](CO)[C@@H](O)[C@H]2O)c(=O)n1 [CYTIDINE] | -0.4063 | -0.0768 | 0.1163
O=C(Nc1cccc(C2=NCCN2)c1)Nc1cccc(C2=NCCN2)c1 [IMIDOCARB] | 0.0151 | -0.365 | 0.0218
CN(C)c1ccc(C(O)(c2ccc(N(C)C)cc2)c2ccc(N(C)C)cc2)cc1 [METHYLROSANILINE] | -0.4054 | -0.0138 | -0.0186
